Test results: patent US10259818B2, “Bicyclic azaheterocyclobenzylamines as PI3K inhibitors” (Incyte Corporation, priority 2012, dated 2019)

Biological target: PI3Kδ (Homo sapiens (Human), UniProt O00329)
Assay: PI3K enzyme assay, [γ-33P]ATP filter plate (Example A2)
Type: biochemical
Conditions: Assay A2 (filter plate, 1000 μM ATP)
Experimental: Example A2: PI3K Enzyme Assay
Lipid kinase substrate, phosphoinositol-4,5-bisphosphate (PIP2), are purchased from Echelon Biosciences (Salt Lake City, Utah). PI3K isoforms α, β, δ and γ are purchased from Millipore (Bedford, Mass.). ATP, MgCl2, DTT, EDTA, MOPS and CHAPS are purchased from Sigma-Aldrich (St. Louis, Mo.).
The kinase reaction are conducted in clear-bottom 96-well plate from Thermo Fisher Scientific in a final volume of 24 μL. Inhibitors are first diluted serially in DMSO and added to the plate wells before the addition of other reaction components. The final concentration of DMSO in the assay is 0.5%. The PI3K assays are carried out at room temperature in 20 mM MOPS, pH 6.7, 10 mM MgCl2, 5 mM DTT and CHAPS 0.03%. The reaction mixture is prepared containing 50 μM PIP2, kinase and varying concentration of inhibitors. Reactions are initiated by the addition of ATP containing 2.2 μCi [γ-^33P]ATP to a final concentration of 1000 μM. The final concentration of PI3K isoforms α, β, δ and γ in the assay were 1.3, 9.4, 2.9 and 10.8 nM, respectively. Reactions are incubated for 180 minutes and terminated by the addition of 100 μL of 1 M potassium phosphate pH 8.0, 30 mM EDTA quench buffer. A 100 μL aliquot of the reaction solution are then transferred to 96-well Millipore MultiScreen IP […] PVDF filter plate (The filter plate is prewetted with 200 μL 100% ethanol, distilled water, and 1 M potassium phosphate pH 8.0, respectively). The filter plate is aspirated on a Millipore Manifold under vacuum and washed with 18×200 μL wash buffer containing 1 M potassium phosphate pH 8.0 and 1 mM ATP. After drying by aspiration and blotting, the plate is air dried in an incubator at 37° C. overnight. Packard TopCount adapter (Millipore) is then attached to the plate followed with addition of 120 μL Microscint 20 scintillation cocktail (Perkin Elmer) in each well. After the plate sealing, the radioactivity of the product is determined by scintillation counting on Topcount (Perkin-Elmer). IC50 determination is performed by fitting the curve of percent control activity versus the log of the inhibitor concentration using the GraphPad Prism 3.0 software.

PI3Kδ, sequence (O00329 whole entry): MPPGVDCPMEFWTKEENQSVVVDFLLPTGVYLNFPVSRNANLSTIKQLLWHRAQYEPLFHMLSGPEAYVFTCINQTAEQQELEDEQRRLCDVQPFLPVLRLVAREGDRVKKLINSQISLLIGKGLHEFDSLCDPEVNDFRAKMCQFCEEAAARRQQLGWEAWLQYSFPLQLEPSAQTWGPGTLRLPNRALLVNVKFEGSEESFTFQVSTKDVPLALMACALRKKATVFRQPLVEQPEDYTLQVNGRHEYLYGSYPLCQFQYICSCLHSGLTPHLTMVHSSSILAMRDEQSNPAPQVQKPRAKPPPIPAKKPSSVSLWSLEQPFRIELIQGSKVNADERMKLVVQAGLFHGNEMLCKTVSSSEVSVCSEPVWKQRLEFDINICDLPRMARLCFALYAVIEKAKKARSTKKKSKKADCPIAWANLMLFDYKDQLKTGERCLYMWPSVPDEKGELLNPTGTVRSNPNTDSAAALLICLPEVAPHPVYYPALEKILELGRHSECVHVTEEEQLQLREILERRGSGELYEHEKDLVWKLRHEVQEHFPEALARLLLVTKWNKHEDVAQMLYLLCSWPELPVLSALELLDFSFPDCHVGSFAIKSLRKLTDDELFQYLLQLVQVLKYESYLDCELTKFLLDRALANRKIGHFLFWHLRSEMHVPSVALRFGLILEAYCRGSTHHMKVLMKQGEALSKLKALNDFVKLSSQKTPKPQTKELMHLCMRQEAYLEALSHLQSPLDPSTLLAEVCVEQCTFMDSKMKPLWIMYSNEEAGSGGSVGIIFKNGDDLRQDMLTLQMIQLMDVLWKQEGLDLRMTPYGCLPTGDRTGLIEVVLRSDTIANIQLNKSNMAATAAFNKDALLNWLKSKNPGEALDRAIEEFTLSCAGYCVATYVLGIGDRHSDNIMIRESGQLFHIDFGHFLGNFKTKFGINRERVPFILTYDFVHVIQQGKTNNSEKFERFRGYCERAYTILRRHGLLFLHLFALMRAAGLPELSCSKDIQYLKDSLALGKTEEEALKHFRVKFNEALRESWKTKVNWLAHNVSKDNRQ
PI3Kδ, sequence (P27986 whole entry partner): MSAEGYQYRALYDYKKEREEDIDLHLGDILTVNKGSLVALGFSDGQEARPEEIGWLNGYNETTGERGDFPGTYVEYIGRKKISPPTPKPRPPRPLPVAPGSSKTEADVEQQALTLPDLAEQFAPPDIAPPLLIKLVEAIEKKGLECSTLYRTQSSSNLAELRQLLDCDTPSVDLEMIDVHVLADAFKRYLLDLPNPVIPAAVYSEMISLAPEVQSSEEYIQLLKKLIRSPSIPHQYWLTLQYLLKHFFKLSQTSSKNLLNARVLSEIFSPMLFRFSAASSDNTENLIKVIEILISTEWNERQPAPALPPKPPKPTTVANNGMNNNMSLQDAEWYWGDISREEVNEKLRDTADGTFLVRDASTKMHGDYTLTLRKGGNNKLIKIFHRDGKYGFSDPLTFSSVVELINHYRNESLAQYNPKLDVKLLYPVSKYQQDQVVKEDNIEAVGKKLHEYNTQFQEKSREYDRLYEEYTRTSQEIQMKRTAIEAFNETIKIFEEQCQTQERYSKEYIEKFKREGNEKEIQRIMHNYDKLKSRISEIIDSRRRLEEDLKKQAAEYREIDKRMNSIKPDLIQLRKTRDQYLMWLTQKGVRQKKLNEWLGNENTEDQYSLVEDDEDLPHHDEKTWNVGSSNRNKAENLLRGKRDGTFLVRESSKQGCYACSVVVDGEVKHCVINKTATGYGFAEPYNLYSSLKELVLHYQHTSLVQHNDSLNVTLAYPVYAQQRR

Question: How did the IC50 turn out when Cc1nn(C(C)c2cc(Cl)c(F)c3c2OC(C)CN(C2CN(C(=O)OC(C)(C)C)C2)C3)c2ncnc(N)c12 (single isomer, unassigned) [Example 27, tert-Butyl 3-[9-[1-(4-amino-3-methyl-1H-pyrazolo[3,4-d]pyrimidin-1-yl)ethyl]-7-chloro-6-fluoro-2-methyl-2,3-dihydro-1,4-benzoxazepin-4(5H)-yl]azetidine-1-carboxylate] was run?
Answer: The IC50 was at most 100 nM.

Question: How did the IC50 turn out when COC(=O)N1CC(N2Cc3c(F)c(Cl)cc(C(C)n4nc(C)c5c(N)ncnc54)c3OC(C)C2)C1 (single isomer, unassigned) [Example 79, methyl 3-[9-[1-(4-amino-3-methyl-1H-pyrazolo[3,4-d]pyrimidin-1-yl)ethyl]-7-chloro-6-fluoro-2-methyl-2,3-dihydro-1,4-benzoxazepin-4(5H)-yl]azetidine-1-carboxylate] was run?
Answer: The IC50 was at most 100 nM.

Question: How did the IC50 turn out when Cc1nn(C(C)c2cc(Cl)c(F)c3c2OCCCN(S(C)(=O)=O)C3)c2ncnc(N)c12 (centres unmarked) [Example 45, 1-{1-[8-Chloro-7-fluoro-5-(methylsulfonyl)-3,4,5,6-tetrahydro-2H-1,5-benzoxazocin-10-yl]ethyl}-3-methyl-1H-pyrazolo[3,4-d]pyrimidin-4-amine] was run?
Answer: The IC50 was at most 100 nM.

Question: How did the IC50 turn out when CCC(=O)N1CC(N2Cc3c(C#N)c(Cl)cc(C(C)n4nc(C)c5c(N)ncnc54)c3OC(C)C2)C1 (centres unmarked) [Example 96, 9-[1-(4-amino-3-methyl-1H-pyrazolo[3,4-d]pyrimidin-1-yl)ethyl]-7-chloro-2-methyl-4-(1-propionylazetidin-3-yl)-2,3,4,5-tetrahydro-1,4-benzoxazepine-6-carbonitrile] was run?
Answer: The IC50 was at most 100 nM.

System: SUDHL-6 cell line (diffuse large B cell lymphoma)
Assay: SUDHL-6 cell proliferation assay (Example B3)
Type: cell-based
Conditions: Homo sapiens, SU-DHL-6, 72 h, SUDHL-6 cells, 3 days, Cell Titer-GLO
Method in brief: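 Cells in RPMI/10% FBS, 5000 per well, exposed to a concentration range of test compound for 3 days. Viability read as ATP content by CellTiter-Glo luminescence after 10 min at room temperature; IC50 derived from the luminescence.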

Question: How did the IC50 turn out when Cc1nn(C(C)c2cc(Cl)c(F)c3c2OCCCN(S(C)(=O)=O)C3)c2ncnc(N)c12 (centres unmarked) [Example 45, 1-{1-[8-Chloro-7-fluoro-5-(methylsulfonyl)-3,4,5,6-tetrahydro-2H-1,5-benzoxazocin-10-yl]ethyl}-3-methyl-1H-pyrazolo[3,4-d]pyrimidin-4-amine] was run?
Answer: Its IC50 is at most 500 nM.

Question: For Cc1nn(C(C)c2cc(Cl)c(C#N)c3c2OCCN(CCO)C3)c2ncnc(N)c12 (centres unmarked) [Example 58, 9-[1-(4-Amino-3-methyl-1H-pyrazolo[3,4-d]pyrimidin-1-yl)ethyl]-7-chloro-4-(2-hydroxyethyl)-2,3,4,5-tetrahydro-1,4-benzoxazepine-6-carbonitrile], which IC50 is on record?
Answer: Its IC50 is at most 500 nM.

Question: With CC(=O)N1CC(N2Cc3c(F)c(Cl)cc(C(C)n4nc(C)c5c(N)ncnc54)c3OC(C)C2=O)C1 (centres unmarked) [Example 71, 4-(1-Acetylazetidin-3-yl)-9-[1-(4-amino-3-methyl-1H-pyrazolo[3,4-d]pyrimidin-1-yl)ethyl]-7-chloro-6-fluoro-2-methyl-4,5-dihydro-1,4-benzoxazepin-3(2H)-one] as the molecule, how does the IC50 read?
Answer: Its IC50 is 500 to 1000 nM.

Question: Cc1nn(C(C)c2cc(Cl)c(F)c3c2OCCN(C2CN(C(=O)N(C)C)C2)C3)c2ncnc(N)c12 (centres unmarked) [Example 73, 3-[9-[1-(4-amino-3-methyl-1H-pyrazolo[3,4-d]pyrimidin-1-yl)ethyl]-7-chloro-6-fluoro-2,3-dihydro-1,4-benzoxazepin-4(5H)-yl]-N,N-dimethylazetidine-1-carboxamide] was tested. Which IC50 did it give?
Answer: Its IC50 is at most 500 nM.

Question: Which IC50 does the source give for Cc1nn(C(C)c2cc(Cl)c(F)c3c2OCCN(C2CN(S(=O)(=O)N(C)C)C2)C3)c2ncnc(N)c12 (centres unmarked) [Example 74, 3-[9-[1-(4-amino-3-methyl-1H-pyrazolo[3,4-d]pyrimidin-1-yl)ethyl]-7-chloro-6-fluoro-2,3-dihydro-1,4-benzoxazepin-4(5H)-yl]-N,N-dimethylazetidine-1-sulfonamide] here?
Answer: Its IC50 is 500 to 1000 nM.

Question: For Cc1nn(C(C)c2cc(Cl)c(F)c3c2OC(C)CN(C2CN(S(C)(=O)=O)C2)C3)c2ncnc(N)c12 (centres unmarked) [Example 75, 1-(1-{7-chloro-6-fluoro-2-methyl-4-[1-(methylsulfonyl)azetidin-3-yl]-2,3,4,5-tetrahydro-1,4-benzoxazepin-9-yl}ethyl)-3-methyl-1H-pyrazolo[3,4-d]pyrimidin-4-amine], which IC50 is on record?
Answer: Its IC50 is at most 500 nM.

Question: CCC(=O)N1CC(N2Cc3c(F)c(Cl)cc(C(C)n4nc(C)c5c(N)ncnc54)c3OC(C)C2)C1 (centres unmarked) [Example 76, 1-{1-[7-chloro-6-fluoro-2-methyl-4-(1-propionylazetidin-3-yl)-2,3,4,5-tetrahydro-1,4-benzoxazepin-9-yl]ethyl}-3-methyl-1H-pyrazolo[3,4-d]pyrimidin-4-amine] was tested. Which IC50 did it give?
Answer: The IC50 was at most 500 nM.

Question: Cc1nn([C@@H](C)c2cc(Cl)c(F)c3c2O[C@@H](C)CN(C2CN(C[C@H](C)O)C2)C3)c2ncnc(N)c12 [Example 85, (2S)-1-{3-[(2S)-9-[(1S)-1-(4-amino-3-methyl-1H-pyrazolo[3,4-d]pyrimidin-1-yl)ethyl]-7-chloro-6-fluoro-2-methyl-2,3-dihydro-1,4-benzoxazepin-4(5H)-yl]azetidin-1-yl}propan-2-ol] was tested. Which IC50 did it give?
Answer: The IC50 was at most 500 nM.

Question: Which IC50 does the source give for Cc1nn([C@@H](C)c2cc(Cl)c(F)c3c2O[C@@H](C)CN(C2CN(C[C@@H](C)O)C2)C3)c2ncnc(N)c12 [Example 86, (2R)-1-{3-[(2S)-9-[(1S)-1-(4-amino-3-methyl-1H-pyrazolo[3,4-d]pyrimidin-1-yl)ethyl]-7-chloro-6-fluoro-2-methyl-2,3-dihydro-1,4-benzoxazepin-4(5H)-yl]azetidin-1-yl}propan-2-ol] here?
Answer: Its IC50 is at most 500 nM.

Question: CCC(=O)N1CC(N2CCOc3c(C(C)n4nc(C)c5c(N)ncnc54)cc(Cl)c(C#N)c3C2)C1 (centres unmarked) [Example 89, 9-[1-(4-amino-3-methyl-1H-pyrazolo[3,4-d]pyrimidin-1-yl)ethyl]-7-chloro-4-(1-propionylazetidin-3-yl)-2,3,4,5-tetrahydro-1,4-benzoxazepine-6-carbonitrile] was tested. Which IC50 did it give?
Answer: Its IC50 is at most 500 nM.

Question: With Cc1nn(C(C)c2cc(Cl)c(C#N)c3c2OCCN(C2CN(S(C)(=O)=O)C2)C3)c2ncnc(N)c12 (centres unmarked) [Example 90, 9-[1-(4-amino-3-methyl-1H-pyrazolo[3,4-d]pyrimidin-1-yl)ethyl]-7-chloro-4-[1-(methylsulfonyl)azetidin-3-yl]-2,3,4,5-tetrahydro-1,4-benzoxazepine-6-carbonitrile] as the molecule, how does the IC50 read?
Answer: Its IC50 is at most 500 nM.

Question: With Cc1nn(C(C)c2cc(Cl)c(C#N)c3c2OCCN(C2CN(C(=O)NC(C)C)C2)C3)c2ncnc(N)c12 (centres unmarked) [Example 91, 3-[9-[1-(4-amino-3-methyl-1H-pyrazolo[3,4-d]pyrimidin-1-yl)ethyl]-7-chloro-6-cyano-2,3-dihydro-1,4-benzoxazepin-4(5H)-yl]-N-isopropylazetidine-1-carboxamide] as the molecule, how does the IC50 read?
Answer: Its IC50 is at most 500 nM.

Question: How did the IC50 turn out when CCOC(=O)N1CC(N2CCOc3c(C(C)n4nc(C)c5c(N)ncnc54)cc(Cl)c(C#N)c3C2)C1 (centres unmarked) [Example 92, ethyl 3-[9-[1-(4-amino-3-methyl-1H-pyrazolo[3,4-d]pyrimidin-1-yl)ethyl]-7-chloro-6-cyano-2,3-dihydro-1,4-benzoxazepin-4(5H)-yl]azetidine-1-carboxylate] was run?
Answer: The IC50 was at most 500 nM.

Question: With CCC(=O)N1CC(N2Cc3c(C#N)c(Cl)cc(C(C)n4nc(C)c5c(N)ncnc54)c3OC(C)C2)C1 (centres unmarked) [Example 96, 9-[1-(4-amino-3-methyl-1H-pyrazolo[3,4-d]pyrimidin-1-yl)ethyl]-7-chloro-2-methyl-4-(1-propionylazetidin-3-yl)-2,3,4,5-tetrahydro-1,4-benzoxazepine-6-carbonitrile] as the molecule, how does the IC50 read?
Answer: The IC50 was at most 500 nM.

Same assay, conditions: SUDHL-6 cells, 3 days, Cell Titer-GLO

Question: How did the IC50 turn out when Cc1nn(C(C)c2cc(Cl)c(F)c3c2OC(C)CN(C2CN(C(=O)OC(C)(C)C)C2)C3)c2ncnc(N)c12 (single isomer, unassigned) [Example 27, tert-Butyl 3-[9-[1-(4-amino-3-methyl-1H-pyrazolo[3,4-d]pyrimidin-1-yl)ethyl]-7-chloro-6-fluoro-2-methyl-2,3-dihydro-1,4-benzoxazepin-4(5H)-yl]azetidine-1-carboxylate] was run?
Answer: The IC50 was at most 500 nM.

Question: Cc1nn(C(C)c2cc(Cl)c(C#N)c3c2O[C@@H](C)CN(C2CN(CCO)C2)C3)c2ncnc(N)c12 (stereo partly drawn) [Example 57, (2S)-9-[1-(4-Amino-3-methyl-1H-pyrazolo[3,4-d]pyrimidin-1-yl)ethyl]-7-chloro-4-[1-(2-hydroxyethyl)azetidin-3-yl]-2-methyl-2,3,4,5-tetrahydro-1,4-benzoxazepine-6-carbonitrile] was tested. Which IC50 did it give?
Answer: Its IC50 is at most 500 nM.
